Patent US20140011930A1, “Bio-Renewable Carboxylic Acid Esters and Mixtures Thereof Useful as Plasticizers” (TEKNOR APEX COMPANY, priority 2012, published 2014)

Tests used:
Type in all cases: physicochemical
[1] = Specific Gravity of PVC compounds (ASTM D-792)
[2] = % Volatile Loss (ASTM D-1203)
[3] = Tensile, 100% modulus, elongation of PVC compounds (ASTM D-638); parameters: 100% Modulus: unit not given here
[4] = Oven Stability (210° C.) (ASTM D-1203)
[5] = Gamma irradiation stability (yellowness index YI)
From the text: Additional advantages of the compounds of the invention are their low cytotoxicity and resistance to gamma radiation especially when compared to the industry standard of di-2-ethylhexyl phthalate (DEHP). Gamma radiation stability is important since it allows for the convenient sterilization of articles prepared from PVC compound. The key performance standard is non-yellowing of the PVC compound after exposure to gamma radiation. An example of the improvement in gamma stability is shown below.

[6] = Loop Spew compatibility test (ASTM D-3291)
Method: This plasticizer was evaluated in the same formulations as test compounds 1, 2, 3 along with DEHP and Example 1.
PVC compounds were prepared with the plasticizers described in Example 1 and Example 2, and a commercial sample of DEHP, containing standard heat stabilizers, antioxidant and a lubricant. The compounds were evaluated in standard laboratory tests according the following ASTM methods: […]

[7] = Hardness (Shore) of PVC compounds (ASTM D-2240)
[8] = Brittle Point (ASTM D-746)
[9] = Dynamic Heat Stability (ASTM D-2538)
[10] = PVC Test Compound 59-67 A Gauge
[11] = PVC Test Compound 59-67 A Gauge, DEHP vs Example 1/ESO series
[12] = PVC Test Compound 80-85 C Gauge
[13] = PVC Test Compound 80-85 C Gauge, DEHP vs Example 1/ESO series
[14] = PVC Test Compound 81-85 A Gauge
[15] = PVC Test Compound-Gamma Irradiation Stability-A
[16] = Gamma Radiation = 35 kGys (3.5 Mrads)
[17] = Gamma Radiation = 35 kGys (3.5 Mrads), oven aging 48 hr. at 50° C.

SMILES: CCCCC(CC)COC(=O)c1ccccc1C(=O)OCC(CC)CCCC (stereo not shown) [DEHP, di-(2-ethylhexyl) phthalate]
- Specific Gravity [1, 10]: 1.16
- Specific Gravity [1, 11]: 1.16
- Specific Gravity [1, 12]: 1.28
- Specific Gravity [1, 13]: 1.28
- Specific Gravity [1, 14]: 1.23
- Specific Gravity [1, 15]: 1.24
- % Volatile Loss [2, 10]: 3.54%
- % Volatile Loss [2, 11]: 4.58%
- % Volatile Loss [2, 12]: 1.56%
- % Volatile Loss [2, 13]: 1.67%
- % Volatile Loss [2, 14]: 2.73%
- 100% Modulus [3, 10]: 554
- % Elongation [3, 10]: 439%
- Tensile (psi) [3, 10]: 1559 psi
- 100% Modulus [3, 11]: 518
- % Elongation [3, 11]: 451%
- Tensile (psi) [3, 11]: 1564 psi
- 100% Modulus [3, 12]: 3440
- % Elongation [3, 12]: 281%
- Tensile (psi) [3, 12]: 3840 psi
- 100% Modulus [3, 13]: 3617
- % Elongation [3, 13]: 282%
- Tensile (psi) [3, 13]: 4083 psi
- 100% Modulus [3, 14]: 1490
- % Elongation [3, 14]: 380%
- Tensile (psi) [3, 14]: 2875 psi
- Oven Stability (210° C.) Decomposition Failure [4, 10]: 50 min
- Oven Stability (210° C.) Initial Color [4, 10]: Clear
- Oven Stability (210° C.) Initial Color Failure [4, 10]: 15 min
- Oven Stability (210° C.) Decomposition Failure [4, 11]: 60 min
- Oven Stability (210° C.) Initial Color [4, 11]: Clear
- Oven Stability (210° C.) Initial Color Failure [4, 11]: 15 min
- Oven Stability (210° C.) Decomposition Failure [4, 12]: 50 min
- Oven Stability (210° C.) Initial Color [4, 12]: Clear
- Oven Stability (210° C.) Initial Color Failure [4, 12]: 15 min
- Oven Stability (210° C.) Decomposition Failure [4, 13]: 50 min
- Oven Stability (210° C.) Initial Color [4, 13]: Clear
- Oven Stability (210° C.) Initial Color Failure [4, 13]: 10 min
- Oven Stability (210° C.) Decomposition Failure [4, 14]: 50 min
- Oven Stability (210° C.) Initial Color [4, 14]: Clear
- Oven Stability (210° C.) Initial Color Failure [4, 14]: 15 min
- Absolute YI After 35 kGys Gamma [5, 16]: 12.24
- Change in YI from Original After 35 kGys Gamma [5, 16]: 5.46
- Absolute YI After 35 kGys Gamma and Oven Aging (48 hr. at 50° C.) [5, 17]: 17.58
- Change in YI from Original After 35 kGys Gamma and Oven Aging (48 hr. at 50° C.) [5, 17]: 10.80
- Absolute YI Original ([5]; before irradiation): 6.78
- Loop Spew [6, 10]: None
- Loop Spew [6, 11]: None
- Loop Spew [6, 12]: None
- Loop Spew [6, 13]: None
- Loop Spew [6, 14]: None
- Hardness Shore A (15 sec delay) [7, 10]: 60
- Hardness Shore A (instant) [7, 10]: 68
- Hardness Shore A (15 sec delay) [7, 11]: 56
- Hardness Shore A (instant) [7, 11]: 60
- Hardness Shore C (10 sec delay) [7, 12]: 85
- Hardness Shore C (instant) [7, 12]: 93
- Hardness Shore C (10 sec delay) [7, 13]: 85
- Hardness Shore C (instant) [7, 13]: 90
- Hardness Shore C (10 sec delay) [7, 14]: 83
- Hardness Shore C (instant) [7, 14]: 90
- Hardness Shore A (15 sec delay) [7, 15]: 86
- Hardness Shore A (instant) [7, 15]: 91
- Brittle Point ° C. [8, 10]: −48.5 °C
- Brittle Point ° C. [8, 11]: −50.5 °C
- Brittle Point ° C. [8, 12]: −17.0 °C
- Brittle Point ° C. [8, 13]: −22 °C
- Brittle Point ° C. [8, 14]: −34.5 °C
- Dynamic Heat Stability [9, 10]: 72 min
- Dynamic Heat Stability [9, 11]: 54
- Dynamic Heat Stability [9, 12]: 19 min
- Dynamic Heat Stability [9, 13]: 7 min
- Dynamic Heat Stability [9, 14]: 40 min
